Data taken from patent US20100324017A1, “ACYLGUANIDINE DERIVATIVE” (priority 2007, published 2010).

What was measured:
MAP-induced overactivity = test: MAP (methane phetamine)-induced overactivity in mice, kinetic momentum by infrared sensor; format: in vivo; settings: mouse, oral, MAP 1 mg/kg i.p., total 60 minutes, P<0.05
Protocol: Evaluation of Various Drugs Relative to a Drug for Increasing the Kinetic Momentum of Mice (Methane Phetamine, MK-801) (Method for Measuring a Kinetic Momentum by Discharge of an Infrared Ray)
The effect of improving the positive symptoms and the negative symptoms of schizophrenia by the compound (I) was evaluated by measuring the kinetic momentum that had been […] with administration of the compound in a model causing the symptoms by methane phetamine (which is hereinafter simply referred to as MAP) and MK-801.
Species: Male ICR mouse/number of animals (number of animals per group): 8 to 12 animals per group
The animal was left in a laboratory for 1 hour or longer to be acclimated to the environment, and the animal was taken from the feeding cage, orally administered with a compound to be tested, and then returned to the feeding cage. After 30 minutes, it was put into a cage for measurement, and the kinetic momentum of just the compound to be tested was measured. Further, after 30 minutes, the animal was taken out, and intraperitoneally administered with a drug for increasing kinetic momentum (MAP; 1 mg/kg or MK-801; 0.3 mg/kg, all dissolved in physiological saline), and its kinetic momentum was measured for a certain time (60 minutes) using a device for measuring the kinetic momentum by means of an infrared ray sensor (CompACT AMS, Muromachi Kikai Co., Ltd.). Also, the test was carried out under non-fasting.
The 60 minutes of measurements was classified into three groups: a first half 30 minutes, a second half 30 minutes, and a total 60 minutes. For a normal mouse (a mouse administered with physiological saline) and a mouse administered with the drug for increasing kinetic momentum, a Student's T test was used for evaluation in each interval. For the group administered with the compound to be tested, a solvent (vehicle) group and a Dunnett's T test were carried out and evaluated. For the evaluation, in case where there was a significant (P<0.05) difference for the total 60 minutes, it was considered to be effective.

[1] = tested on: PCP-induced prepulse inhibition (PPI) disorder; test: Disorder of PCP-induced prepulse inhibition (PPI) in a rat; format: in vivo; settings: oral, PCP 1 mg/kg s.c., % PPI
Protocol: An Improvement Effect for a Disorder of PCP-Induced Prepulse Inhibition (PPI) in a Rat
A startle amplitude occurs in humans to which an sound stimulus has been given, but in healthy human, this startle amplitude is inhibited by the giving of a weak sound stimulus that precedes the sound stimulus. For a patient with schizophrenia, the inhibitory function similarly declined. It is known that when a rat is administered with PCP (phencyclidine), there is a symptom similar to the negative symptom of schizophrenia in humans. Using this model, the improvement effect of the compound (I) for the information processing disorder included in cognitive impairment of schizophrenia was evaluated.
Species: Male Wistar rat/number of the animals (number of animals per group): 12 animals per group
Startle amplitude measuring device for small animals: an SR-LAB ABS system (manufactured by San Diego Instruments)
An animal holder, to which a Plexiglas-made cylinder for animal storage having a diameter of 8.2 cm was attached, was positioned in the upper part of a Plexiglas-made frame in a measurement box. In the measurement box, a sound-insulating treatment and ventilation (FAN) were carried out. Sound was administered by a speaker attached to the 24 cm upper part of the cylinder. The movement of the animals in the cylinder was detected by a transducer attached in the lower part of the frame and recorded by a microcomputer via an interface.
The experiment was initiated after the animals were put into the chamber for measurement and had spent 10 minutes adapting to the measurement environment. Basically, at 35 minutes after the compound to be tested was orally administered, 1 mg/kg of PCP was subcutaneously administered (1 ml/kg). Five minutes later, the rats were put into a chamber for measurement, allowed to adapt for 10 minutes, and the measurement was then initiated. A white noise of 65 dB (for all frequencies, a disordered noise having a constant energy per unit band) used as a background noise was always played through the break periods and the sessions. The three types of trials as shown below were carried out in a random order 10 times for each type with 30 times in total. Each trial was carried out at a pseudo-random interval of 20 to 60 seconds with an average of 40 seconds. A pulse was defined as a white noise of 120 dB, 20 msec, and a prepulse was defined as a white noise of 70, 80 dB, 20 msec.
The startle amplitude of the animal was measured for 100 msec from the initiation of the pulse, and the maximum value was taken as a “maximum startle amplitude (Vmax))”. The “maximum startle amplitude” for the ten times for each of the three types of trials were averaged, and taken as a “startle amplitude (simply referred to as SA)” under the stimulation condition.
The % prepulse inhibition (% PPI) was calculated in the following equation in the PP80 & P trial of 3) above.
% Prepulse inhibition (% PPI)=(Startle amplitude at P-alone trial (SA)−Startle amplitude (SA) at a PP80 & P trial)/Startle amplitude at P alone trial×100
The measured value was expressed as an average value (mean±SE). First, the startle amplitudes (SA) were statistically analyzed. […] For the measured data of % PPI, the normal group and the control group (the group administered with PCP) were compared by a Student t-test, and for the control group and the group administered with the compound to be tested were compared using a Dunnett evaluation. […] The effect of the compound to be tested was assessed with % PPI.

SMILES	inhibition of MAP-induced overactivity (MAP-induced overactivity; dose 0.01 mg/kg)	improvement of the disorder of PCP prepulse inhibition (PPI) ([1]; dose 0.03 mg/kg)	improvement of the disorder of PCP prepulse inhibition (PPI) ([1]; dose 0.1 mg/kg)	inhibition of MAP-induced overactivity (MAP-induced overactivity; dose 0.003 mg/kg)	improvement of the disorder of PCP prepulse inhibition (PPI) ([1]; dose 0.3 mg/kg)
NC(N)=NC(=O)c1ccc2c3ccccc3n(C3CCOCC3)c2c1 [Example 25]	significantly inhibited	significantly improved	significantly improved		
CC(C)n1c2cc(C(=O)N=C(N)N)ccc2c2c(CO)cccc21 [Example 65]			significantly improved	significantly inhibited	significantly improved
